Data taken from ChEMBL document CHEMBL4706535, “The development of Coronavirus 3C-Like protease (3CL) inhibitors from 2010 to 2020” (Eur J Med Chem, 2020).

What was measured:
[1] = Inhibition of SARS-CoV 3C-like protease (9970 to 10887 residues) expressed in Escherichia coli BL21(DE3) CodonPlus-RIL cells using Dabcyl-KTSAVLQSGFRKME-Edans fluorogenic peptide as substrate measured up to 60 mins by FRET method; design: species or system Severe acute respiratory syndrome-related coronavirus
[2] = Inhibition of SARS-CoV-2 3c-like protease; design: species or system Severe acute respiratory syndrome coronavirus 2
[3] = Inhibition of His-tagged SARS-CoV 3c-like protease using Abz-SVTLQSG-Tyr(NO2)R as substrate by fluorometric assay; design: species or system Severe acute respiratory syndrome-related coronavirus
[4] = Inhibition of SARS-CoV 3C-like protease (3241 to 3546 residues) expressed in Pichia pastoris GS115 using Dabcyl-KTSAVLQSGFRKME-Edans fluorogenic peptide as substrate measured for 18 mins by fluorescence method; design: species or system Severe acute respiratory syndrome-related coronavirus
[5] = Inhibition of SARS-CoV 3C-like protease (3241 to 3546 residues) expressed in Pichia pastoris GS115 using Dabcyl-KTSAVLQSGFRKME-Edans fluorogenic peptide as substrate measured for 18 mins by Lineweaver-burk plot based Dixon plot analysis; design: species or system Severe acute respiratory syndrome-related coronavirus
[6] = Inhibition of SARS-CoV-2 3c-like protease expressed in Escherichia coli by FRET-based cleavage assay; design: species or system Severe acute respiratory syndrome coronavirus 2

CCC(Cc1c(OC)ccc(C(=O)/C=C/c2ccc(O)cc2)c1O)OO (stereo unspecified)
IC50 [1]: 11.4 µM

Oc1cc(O)cc(Oc2c(O)cc(O)c3c2Oc2c(O)cc4oc5c(Oc6cc(O)cc(O)c6)c(O)cc(O)c5c4c2O3)c1 [PHLOROFUCOFUROECKOL A]
IC50 [2]: 16.7 µM

Oc1cc(O)c(Oc2cc(O)cc(O)c2Oc2cc(-c3c(O)cc(O)cc3O)c(O)cc2O)c(O)c1
IC50 [2]: 22.5 µM

CC(=O)N[C@H](C(=O)N[C@H](C(=O)N[C@@H](CC(C)C)C(=O)N[C@@H](C[C@@H]1CCNC1=O)C(=O)Cn1[nH]c(=O)c2c([N+](=O)[O-])cccc2c1=O)[C@@H](C)OCc1ccccc1)C(C)C
IC50 [3]: 0.6 µM

Oc1cc(O)cc(Oc2c(O)cc(O)c3c2Oc2c(O)cc(Oc4c(O)cc(Oc5c(O)cc(O)c6c5Oc5c(O)cc(O)cc5O6)cc4O)cc2O3)c1 [DIECKOL]
IC50 [2]: 2.7 µM

Oc1cc(O)cc(Oc2c(O)cc(O)c3c2Oc2c(O)cc(Oc4c(O)cc(O)cc4O)cc2O3)c1
IC50 [2]: 42.1 µM

C/C(=C\Cc1c(O)ccc(C(=O)/C=C/c2ccc(O)cc2)c1O)CCC(O)C(C)C (stereo unspecified)
IC50 [1]: 22.2 µM

Oc1cc(O)cc(Oc2c(Oc3c(O)cc(O)cc3O)cc(O)c3c2Oc2c(O)cc(O)cc2O3)c1 [2-PHLOROECKOL]
IC50 [2]: 13.3 µM

O=C(O[C@@H]1Cc2c(O)cc(O)cc2O[C@H]1c1cc(O)c(O)c(O)c1)c1cc(O)c(O)c(O)c1 [GALLOCATECHIN GALLATE]
IC50 [4]: 47 µM
Ki [5]: 25 µM

CC(=O)N[C@H](C(=O)N[C@H](C(=O)N[C@@H](CC(C)C)C(=O)N[C@@H](C[C@@H]1CCNC1=O)C(=O)Cn1[nH]c(=O)c2ccccc2c1=O)[C@@H](C)OCc1ccccc1)C(C)C
IC50 [3]: 2.7 µM

O=c1c(O)c(-c2ccc(O)c(O)c2)oc2cc(O)cc(O)c12 [QUERCETIN]
IC50 [4]: 73 µM

O=C[C@H](C[C@@H]1CCNC1=O)NC(=O)[C@H](Cc1cccc(F)c1)NC(=O)c1cc2ccccc2[nH]1
IC50 [6]: 0.04 µM

COc1ccc(C(=O)/C=C/c2ccc(O)cc2)c(O)c1C/C=C(\C)CCC=C(C)C [XANTHOANGELOL F]
IC50 [1]: 34.1 µM

Oc1cc(O)cc(Oc2c(O)cc(O)c3c2Oc2c(O)cc(O)cc2O3)c1 [ECKOL]
IC50 [2]: 8.8 µM

O=C(O[C@@H]1Cc2c(O)cc(O)cc2O[C@@H]1c1cc(O)c(O)c(O)c1)c1cc(O)c(O)c(O)c1 [EPIGALOCATECHIN GALLATE]
IC50 [4]: 73 µM
